Experimental findings from US10222381B2, “Water-soluble peptide fluorescence material” (NATIONAL CHIAO TUNG UNIVERSITY, priority 2015, dated 2019) are described below.

Structures are written as SMILES. Residues, ends and D or L forms follow the SMILES beside them. *: point of attachment. X1 = O=C1c2cccc3c(N4CCCCC4)ccc(c23)C(=O)C1CC(=O)*

Data set [1] in a line: Survival rate of CTXTAN2 cells. Type of data set: cell-based. The conditions noted are these: rat. The source says: (§1) The above experimental result is much better than a standard of IC50 (50% inhibitory concentration). IC50 represents a concentration of a drug that is required for 50% survival rate of the cells, which means that a certain concentration of a drug is used to detect a cell mortality rate of 50%, and the certain concentration is also referred as 50% inhibitory concentration. Described in different ways, when a ratio of death cells to original cells is 50%, the corresponding concentration is 50% inhibitory concentration. The water-soluble peptide fluorescence material of the present disclosure has low toxicity and excellent compatibility to PC-3 cells, so as to avoid mass mortality of the cells. In addition, HeLa, MCF-7, CTXTAN2, PC12, WSI, 3T3L1 cells are also tested. The water-soluble peptide fluorescence material has excellent compatibility with these cells since the survival rate of these cell are all over 50%.

The nature of data set [2]: Survival rate of PC-3 cells in the fluorescence material. Type of data set: cell-based. The conditions noted are these: human, two days, PC-3 cell.
From the text: as §1

Data set [3] is described as follows: Survival rate of WSI cells. It counts as cell-based. To be noted: human.
From the text: as §1

Data set [4] is described as follows: Survival rate of HeLa cells. Type of data set: cell-based. To be noted: human.
From the text: as §1

The nature of data set [5]: Fluorescence intensity and emission wavelength at different pH values. It counts as physicochemical. The source says: In Experimental Examples 210, 220, 230, 240, 250, 260, 270 and 280, the above water-soluble peptide fluorescence material is respectively placed in environments having a pH value of 10, 9, 8, 7, 6, 5, 4 and 3 for testing. In Experimental Examples 210 to 230, the water-soluble peptide fluorescence material is respectively placed in environments having the pH value of 10, 9 and 8.
Continuing in FIG. 5, which illustrates a fluorescence intensity and an emission wavelength of the water-soluble peptide fluorescence material of formula (III-10) at different pH values. In Experimental Examples 510, 520, 530, 540, 550, 560, 570 and 580, the water-soluble peptide fluorescence material of formula (III-10) is respectively placed in environments having a pH value of 10, 9, 8, 7, 6, 5, 4 and 3 for testing. In Experimental Examples 510 to 560, the water-soluble peptide fluorescence material is placed in environments having the pH value of 10 to 5, and two emission peaks are shown in FIG. 5. […] Then, the pH value is further decrease to 4 (Experimental Example 570) and 3 (Experimental Example 580), and only the emission peak at about 400 nm is remained, so the observed fluorescence has a color of purple in Experimental Examples 570 and 580. Therefore, the water-soluble peptide fluorescence material of formula (III-10) is able to detect and mark locations of acidic cells by change of the color.
Continuing in FIG. 7, which illustrates a fluorescence intensity and an emission wavelength of the water-soluble peptide fluorescence material of formula (III-21) at different pH values. In Experimental Examples 710, 720, 730, 740, 750, 760, 770 and 780, the water-soluble peptide fluorescence material of formula (III-21) is respectively placed in environments having a pH value of 10, 9, 8, 7, 6, 5, 4 and 3 for testing. In Experimental Examples 710 to 750, the water-soluble peptide fluorescence material is placed in environments having the pH value of 10 to 6. […] However, the fluorescence intensity of Experimental Examples 780 is decreased when the pH value is decreased from 4 to 3.
Continuing in FIG. 8, which illustrates a fluorescence intensity and an emission wavelength of the water-soluble peptide fluorescence material of formula (III-22) at different pH values. In Experimental Examples 810, 820, 830, 840, 850, 860, 870 and 880, the water-soluble peptide fluorescence material of formula (III-22) is respectively placed in environments having a pH value of 10, 9, 8, 7, 6, 5, 4 and 3 for testing. In Experimental Examples 810 to 850, the water-soluble peptide fluorescence material is respectively placed in environments having the pH value of 10 to 6. […] In addition, the fluorescence intensity of Experimental Example 860 (pH=5) is 90 times of the fluorescence intensity of Experimental Example 810 […], which represents that the water-soluble peptide fluorescence material has obvious light-emitting interval and easily to identify and detect positions of the acidic cells.
FIG. 10 illustrates a fluorescence intensity and an emission wavelength of the water-soluble peptide fluorescence material of formula (III-23) at different pH values. In Experimental Examples 1010, 1020, 1030, 1040, 1050, 1060, 1070 and 1080, the water-soluble peptide fluorescence material of formula (III-23) is respectively placed in environments having a pH value of 10, 9, 8, 7, 6, 5, 4 and 3 for testing. In Experimental Examples 1010 to 1050, the water-soluble peptide fluorescence material is respectively placed in environments having the pH value of 10 to 6. […] The water-soluble peptide fluorescence material not only provides obvious marker, but also achieves the same effect of the fluorescence at a low concentration, and thereby reduces the costs.
FIG. 11 illustrates a fluorescence intensity and an emission wavelength of the water-soluble peptide fluorescence material of formula (III-27) at different pH values. […]

A short description of data set [6]: Survival rate of MCF-7 cells. It counts as cell-based. The conditions noted are these: human.
From the text: as §1

Data set [7] has as its system acidic cells in living cells. In words: Fluorescence marking of acidic cells in living cells, compared with Lysotracker. It counts as cell-based. The conditions noted are these: for fluorescence appearing at the acidic cells: living cells, FIGS. 1A/1B. The source says:
The water-soluble peptide fluorescence material is designed to illuminate in acid, neutral or weak base environment, and following embodiments give an example illuminating in acid environment. FIGS. 1A, 1B and 1C are comparative pictures between a water-soluble peptide fluorescence material of the present disclosure and a traditional fluorescence material at the same concentration. The water-soluble peptide fluorescence material has a structure of following formula including a peptide sequence Phe-Asp-Gly-Glu-Ala (SEQ ID NO: 5):
Continuing in FIG. 1B to compare with FIG. 1A, FIG. 1B uses the water-soluble peptide fluorescence material of the present disclosure, which is also used to mark acidic cells in living cells. […] Accordingly, the water-soluble peptide fluorescence material is suitable for a biological fluorescence probe, so as to detect and mark positions of the acidic cells.
At the same concentration, the water-soluble peptide fluorescence material has the greater fluorescence intensity than that of Lysotracker. On this base, a dose of the water-soluble peptide fluorescence material could be decreased to achieve the same fluorescence intensity with the Lysotracker, so as to decrease medical costs and damage to human bodies.

Data set [8] in a line: Survival rate of 3T3L1 cells. Type of data set: cell-based. To be noted: mouse.
From the text: as §1

Data set [9] in a line: Survival rate of PC12 cells. Type of data set: cell-based. The conditions noted are these: rat.
From the text: as §1

Usually viability stands for a per cent measure of how many cells are alive, often set against a control. A high value points to better survival. For the compound `C[C@H](NC(=O)[C@H](CCC(=O)O)NC(=O)CNC(=O)[C@H](CC(=O)O)NC(=O)[C@H](Cc1ccccc1)NC(=O)CC1C(=O)c2cccc3c(N4CCCCC4)ccc(c23)C1=O)C(=O)O` (some centres unmarked) (X1-FDGEA-OH), the viability in data set [1], in data set [3], in data set [4], in data set [6], in data set [8] and in data set [9] was over 50% throughout. The viability at 48 h, 500 µM in [2] stood at 80%. Also, in data set [5] (Experimental Examples 240 and 280), the “ratio of fluorescence intensity pH 3 to pH 7” value is listed as 25.5 times. Also, the fluorescence intensity result in data set [5] (pH 3) is “about 900 fluorescent units”; in [5] (pH 4) it was “about 500 fluorescent units”; in data set [5] (pH 5), “about 350 fluorescent units”; in data set [5] (pH 6, compared to pH 10 to 7) it was “no significant change”; in [5] (pH 7, neutral environment), “slightly increased”; in [5] (pH 10, 9 and 8), “low fluorescence intensities”. Besides, in data set [5] (pH 5), the color of fluorescence entry is listed as “green”. Further, in data set [5] (pH 5), the emission peak entry is listed as “about 550 nm”. In addition, the “fluorescence appearing at the acidic cells” value in data set [7] is “green fluorescence”. In addition, the “cellular position of fluorescence compared with Lysotracker” value in [7] (overlapped picture FIG. 1C) is given as “substantially the same as Lysotracker”. The “fluorescence intensity compared with Lysotracker” value in [7] (same concentration, acidic cells in living cells) is “greater than that of the red fluorescence of Lysotracker”.
Turning to `CN(C)CCNC(=O)CCc1ccc2n1[B-](F)(F)[N+]1=C(c3ccc[nH]3)C=CC1=C2` [Lysotracker, reference compound], in data set [7], the “fluorescence appearing at the acidic cells” value was “red fluorescence”.
